Assay: dissolution in water
Format: physicochemical
Settings: stated in words only, no figure

Compound: COc1ccc(C(CN(C)C)C2(O)CCCCC2)cc1 (stereo not shown) [venlafaxine base, 1-[2-(dimethylamino)-1-(4-methoxyphenyl)ethyl]cyclohexanol]
- dissolution in water: slow

From patent publication US20030191347A1 (priority 2002, published 2003)
